This is an account of results in patent publication US20030229108A1, “Barbituric acid analogs as therapeutic agents” (priority 2000, published 2003).

Each structure is given as a SMILES string. pIC50: −log10 of the molar value. Where two headings read alike, the source gives them in different places.

Data set [1] addresses T1, interaction between HIF-1α and p300 (His-HIF-1α / GST-p300) (Homo sapiens, UniProt Q09472+Q16665).
T1 construct: corresponding to the C-terminal 390 amino acids into vector pET28a; A plasmid containing the N-terminal 595 amino acids of human p300; made in house; host or cells: E. coli
Nature of the data set: Primary assay: fluorescence-based (DELFIA) screening assay for inhibition of the HIF-1α/p300 interaction. The class given is binding. Here is the method:
Candidate compounds were assessed for their ability to inhibit the interaction between HIF-1α and p300 using a high throughput fluorescence-based screening assay (DELFIA) as follows.
A plasmid expressing His-HIF-1α fusion protein was constructed by PCR, by amplifying and subcloning a fragment of the human HIF-1α cDNA (NCBI GenBank, accession number AH006957) corresponding to the C-terminal 390 amino acids into vector pET28a (Novagen®, Madison, Wis., USA). A plasmid containing the N-terminal 595 amino acids of human p300 (NCBI GenBank, accession number U01877) inserted into vector pGEX2T (Pharmacia®, Little Chalfont, Bucks, UK) was used for the production of GST-p300 fusion protein. The recombinant proteins were produced in E. coli. His-HIF-1α was purified using Ni-NTA agarose beads, according to manufacture's method (Qiagen®, Crawley, West Sussex, UK). GST-p300 was purified using Glutathione-sepharose beads (Amersham Pharmacia®, Little Chalfont, Bucks, UK) according to manufacturer's instructions. A titration of every batch of p300 was carried out in order to determine the optimum dilution of the protein to obtain at least a 10:1 ratio signal to noise in the binding assay.
The assay was performed in 96-well Polysorb plates (Nalge Nunc International®, Rochester, N.Y., USA) as follows. Plates were coated with His-HIF-1α at 50 ng/well in […] and incubated overnight at 4° C. The plates were then washed 3 times with deionized water and blocked with 100 μL/well 3% BSA in PBS for 3 hours at 4° C. After washing 3 times as before, GST-p300 was added at the appropriate dilution (1:800 in this screening) in binding buffer (50 mM HEPES pH 7.5, 50 mM NaCl, 0.1% BSA, 0.5 mM DTT). The reaction was incubated at room temperature for 1 hour. Plates were washed 3 times and anti-GST Europium-conjugated antibody (from Wallac®, Turku, Finland) was added at 50 ng/well in […]. After 45 minutes incubation, plates were washed 3 times as before. Then, 100 μL/well enhancement solution (from Wallac®, Catalog No. 1244-105) was added and allowed to react for 15 minutes at room temperature. Plates were read on a Victor 2 plate reader (from Wallac®).

In data set [2] the test system is VEGF. Nature of the data set: VEGF-ELISA (Quantikine sandwich immunoassay of VEGF in cell supernatant). The class given is cell-based. Particulars: Homo sapiens, 17 h; read-out: Secondary Assay VEGF-ELISA IC50. On the procedure: This assay employs the quantitative sandwich enzyme immunoassay technique. A monoclonal antibody (R&D Systems®, Abingdon, Oxon, UK) specific for VEGF was pre-coated onto a microplate. To this was added a sample containing VEGF. After washing, a second anti-VEGF antibody coupled to horseradish peroxidase was added. […] Typically, cells were plated at a concentration of 2.5×10^4 cells/well, and incubated with either 100 μM desferroxamine or at 0.1% O2 for 17 hours at 37° C. 200 μL of supernatant were removed and the VEGF quantitated using the Quantikine® ELISA kit from R&D Systems® (catalog # DVEOO) exactly according to the manufacturer's instructions. The assay is calibrated each time using recombinant human VEGF.
For orientation: In an ELISA, binding on a coated surface is turned into a signal by an enzyme label.

Data set [3] relates to VEGF promoter (VEGF-luciferase reporter) in Hepatoma 3B (hep3B) cells. As to the kind of experiment: VEGF-luciferase cell-based reporter assay, desferoxamine-induced, Hepatoma 3B (hep3B) cells. Conditions: 15 h, read-out: Secondary Assay VEGF-luciferase IC50. The source says: This cell-based reporter assay involves the use of a luciferase reporter gene under the direct control of the VEGF promoter. Induction of HIF using desferoxamine leads to the transcription of luciferase through activation of the VEGF (Vascular Endothelial Growth Factor) promoter, which in turn leads to an increase in luciferase activity, which can be measured using most commercially available luciferase assay kits. Molecules that disrupt the HIF complex cause inhibition of HIF-dependent luciferase activation and lead to a reduction in luciferase activity. This assay allows the activity of the compounds to be assessed against the VEGF promoter, which is essential for VEGF production and subsequent angiogenesis.
Hepatoma 3B (hep3B) cells (ATCC Ref. No. HB-8064) were plated in 24-well plates at 2×10^4/well in 500 μL DMEM/10% FCS, and were transfected the following day using Fugene 6 (Roche Biochemicals®, Lewes, E. Sussex, UK). Transfection mixtures per well contained 6 μL 10% Fugene, 200 ng VEGF-luciferase reporter (rat VEGF promoter, NCBI GenBank, accession number U22373, Levy et al., 1995) and 2 ng TK-renilla (Promega®, Madison, Wis., USA) (for transfection efficiency control). Transfection was performed as recommended by manufacturer. Compounds were added the following day. After 1 hour incubation at 37° C., desferoxamine (Sigma®, Dorset, UK) was added at 100 μM to induce HIF activity. Duplicate wells without desferoxamine were run in parallel. Cells were harvested 15 hours later, and luciferase activity was measured using Dual Luciferase Assay System (Promega®, see also Technical Manual, Part #TM040, Instructions for Use of Products E1910 and E1960, revised May/1999).
Background: A reporter such as luciferase makes a cellular process visible.

T1 sequence (Q16665 437-826 limits assumed): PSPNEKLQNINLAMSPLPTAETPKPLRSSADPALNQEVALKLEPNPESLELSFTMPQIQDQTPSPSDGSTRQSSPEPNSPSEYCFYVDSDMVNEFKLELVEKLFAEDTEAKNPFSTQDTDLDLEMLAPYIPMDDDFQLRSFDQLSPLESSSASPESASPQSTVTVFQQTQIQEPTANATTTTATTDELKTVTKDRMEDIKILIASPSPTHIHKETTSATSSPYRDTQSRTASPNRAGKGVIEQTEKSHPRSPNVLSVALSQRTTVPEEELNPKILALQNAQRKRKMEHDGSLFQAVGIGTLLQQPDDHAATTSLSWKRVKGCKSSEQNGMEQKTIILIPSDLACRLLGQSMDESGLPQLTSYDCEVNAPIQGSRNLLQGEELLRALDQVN
T1 sequence (Q09472 1-595 limits assumed): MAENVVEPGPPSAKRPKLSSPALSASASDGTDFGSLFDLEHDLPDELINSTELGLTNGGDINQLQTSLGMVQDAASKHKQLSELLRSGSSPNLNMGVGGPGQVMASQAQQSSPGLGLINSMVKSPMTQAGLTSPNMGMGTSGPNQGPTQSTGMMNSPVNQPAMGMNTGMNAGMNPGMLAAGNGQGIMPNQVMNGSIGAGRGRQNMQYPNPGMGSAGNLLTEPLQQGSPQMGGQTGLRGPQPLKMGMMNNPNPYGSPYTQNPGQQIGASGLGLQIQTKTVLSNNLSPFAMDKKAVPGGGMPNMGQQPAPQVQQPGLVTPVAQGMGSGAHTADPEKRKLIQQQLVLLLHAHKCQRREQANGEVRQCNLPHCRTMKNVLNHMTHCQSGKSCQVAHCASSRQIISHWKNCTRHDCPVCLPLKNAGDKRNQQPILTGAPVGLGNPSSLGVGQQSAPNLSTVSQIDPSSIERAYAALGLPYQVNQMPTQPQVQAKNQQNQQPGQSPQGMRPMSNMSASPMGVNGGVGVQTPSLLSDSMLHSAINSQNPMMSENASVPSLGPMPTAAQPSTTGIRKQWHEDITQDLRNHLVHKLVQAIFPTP

Usually pIC50 stands for the IC50 on a negative log10 scale, so that one unit is a factor of ten. For the molecule `O=C1NC(=S)NC(=O)C1=Cc1c[nH]c2ccccc12` [PX075276, 5-(1H-Indol-3-ylmethylene)-2-thioxo-dihydro-pyrimidine-4,6-dione], the results for the pIC50 in data set [1], in data set [2] and in data set [3] were 4.52, 4.73 and 4.97, respectively.
As to `CN(CCC#N)c1ccc(C=C2C(=O)NC(=S)NC2=O)cc1` [PX089643], the negative logarithm of the IC50 (pIC50) in data set [1] was 4.26; in data set [2], 4.00; in data set [3] it was 4.06.
Regarding `O=C1NC(=S)NC(=O)C1=Cc1ccc(Oc2ccccc2)cc1` [PX106021, 5-(4-Phenoxy-benzylidene)-2-thioxo-dihydro-pyrimidine-4,6-dione], the values for the pIC50 in data set [2] and in data set [3] were 4.10 and 4.00, respectively.
For `O=C1NC(=S)NC(=O)C1=Cc1ccc(-c2cc(C(F)(F)F)cc(C(F)(F)F)c2)o1` [PX075367], the pIC50 in data set [1] is 4.35; in data set [2], 4.12; in data set [3], 4.30.
For `Cc1cc(C=C2C(=O)NC(=S)NC2=O)c(C)n1-c1ccccc1` [PX106151], in that order: 3.80, 4.12 and 4.40.
For `O=C1C(=Cc2ccc(Cl)cc2)C(=O)N(c2ccccc2)C(=S)N1c1ccccc1` [PX089645, 5-(4-Chloro-benzylidene)-1,3-diphenyl-2-thioxo-dihydro-pyrimidine-4,6-dione], the negative logarithm of the IC50 (pIC50) is 4.10 in data set [1] and 3.70 in data set [2].
For the molecule `O=C1NC(=O)C(=Cc2ccc([N+](=O)[O-])s2)C(=O)N1` [PX074037], the pIC50 in data set [1] is 4.00; in data set [2] it was 4.52; in data set [3] it was 4.46.
For orientation: melting point means the temperature of the solid-liquid transition. For `O=C1NC(=S)NC(=O)C1=Cc1cccc2ccccc12` [PX089635, 5-(Naphthalen-1-ylmethylene)-2-thioxo-dihydro-pyrimidine-4,6-dione], the melting point was 280 °C (dec.). For the same molecule, the negative logarithm of the IC50 (pIC50) in data set [1] was 4.10.
For `O=C1NC(=S)NC(=O)C1=Cc1cn(Cc2ccccc2)c2ccccc12` [PX106341], the pIC50 is 4.31 in data set [1], 4.70 in data set [2] and 4.24 in data set [3].
For `Cc1cc(C)c(C=C2C(=O)NC(=S)NC2=O)[nH]1` [PX089624], the pIC50 in data set [1] was 4.35; in data set [2], 5.21; in data set [3], 4.90.
Turning to `Cc1ccc(N2C(=O)/C(=C/c3ccoc3)C(=O)NC2=S)cc1` [PX106297], the pIC50 in data set [1] was 4.49; in data set [3], 4.00.
As to `Cc1cc(C)cc(-n2c(C)cc(C=C3C(=O)NC(=S)NC3=O)c2C)c1` [PX106155], the results for the negative-log IC50 (pIC50) in data set [1], in data set [2] and in data set [3] were 5.00, 4.35 and 4.56, respectively.
`O=C1NC(=S)NC(=O)C1=Cc1ccccc1OCc1ccccc1F` [PX106343]: the pIC50 was 4.31 in data set [1] and 4.00 in data set [3].
For the molecule `CCN(CC)c1ccc(C=C2C(=O)NC(=O)NC2=O)cc1` [P2083675], the figures for the pIC50 in data set [1], in data set [2] and in data set [3] were 4.46, 4.12 and 4.30, respectively.
Turning to `COc1ccc2cccc(/C=C3/C(=O)NC(=S)N(c4ccc(Br)cc4)C3=O)c2c1` [PX106265], the results for the pIC50 in data set [1] and in data set [3] were 4.30 and 4.49, respectively.
`CN(C)c1ccc(C=C2C(=O)NC(=S)NC2=O)cc1` [PX089631, 5-(4-dimethylamino-benzylidene)-2-thioxo-dihydro-pyrimidine-4,6-dione]: the pIC50 in data set [1] is 4.60; in data set [2], 4.56; in data set [3], 4.79.
As for `Cc1cc2nc3c(=O)n(CC(=O)O)c(=O)nc-3n(C)c2cc1C` [PX088992], the pIC50 in data set [1] (read-out: Primary Assay Inhibition IC50) is 5.00; in data set [3], 4.70.
In the case of `CCN1C(=O)/C(=C/C=C/c2ccco2)C(=O)NC1=S` [PX106281], the pIC50 in data set [1] is 4.46; in data set [2] it was 4.52; in data set [3], 4.55.
`O=C1NC(=S)NC(=O)C1=Cc1ccc(-c2cc(Cl)ccc2Cl)o1` [PX106326]: the pIC50 was 4.40 in data set [1] and 4.30 in data set [3].
